Data on one substance can be found in patent publication US20250121087A1, “ANTIBODY-DRUG CONJUGATES COMPRISING ANTI-B7-H3 ANTIBODIES” (priority 2020, published 2025).

The assay deals with JIMT-1 xenograft. Put plainly: In vivo efficacy, JIMT-1 tumor xenograft (tumor volume, body weight). The settings on record: control conjugate, 5 mg/kg i.v.; BALB/c nu/nu mice. As for the experimental part: T-20-AB2.1, T-23-AB2.1, T-Int-102-D1-5 AB2.1, and T-Int0112-AB2.1 were prepared with 20 mg scale reaction. After purification by HIC column, final samples were concentrated to 5-10 mg/ml protein.
In vivo efficacy of T-20-AB2.1 and T-23-AB2.1 was measured by tumor xenograft studies in mice. Female BALB/c nu/nu were injected subcutaneously in the right flank with suspensions of 5×10^6 of JIMT-1 cells respectively in PBS. Mice were randomized into study groups when tumors reached approximately 150 mm^3. T-DM1 (5 mg/kg) and T-20-AB2.1 and T-23-AB2.1 conjugates (0.3 mg/kg, QW X^4) were given i.v. All treatment groups consisted of 6 to 10 animals per group, and tumor size was monitored twice weekly using caliper measurement. The tumor mass was calculated as volume=(width×width×length)/2.

Consider T-DM1, for which the “activity in JIMT-1 xenograft versus the conjugates of the disclosure” value is recorded as “less active”.
